# Experiments:
# CDK2 = target: T1, CDK2 (Homo sapiens, UniProt P24941); assay: NanoBiT assay (CDK2 degradation); type: cell-based; details: HEK293, HEK293 clonal line with CRISPR KI HiBiT tag on CDK2, Endurazine live cell substrate, 24 hours
# T1 construct: HEK293 clonal lines with CRISPR KI HiBiT tag on CDK2 proteins; host or cells: HEK293 clonal line, CRISPR knock-in HiBiT-CDK2, stably expressing LgBiT
# Protocol: HEK293 clonal lines with CRISPR KI HiBiT tag on either CDK2 proteins and stably expressing LgBiT protein were obtained from Promega (Madison, WI). Cells were plated at 5000 cells per well using Multiflo (BioTek) in 384-well white solid bottom plates (Corning, 3570BC) in 25 ul volume in DMEM media (DMEM, high glucose, HEPES, no phenol red (ThermoFisher Scientific, 21063029)) containing 10% FBS (Corning, 35-075-CV), 1% Penicillin/Streptomycin ((ThermoFisher Scientific, 15140-122), and 1% Endurazine (Nano-Glo Endurazine Live Cell Substrate (Promega, N2571)). Cells were incubated for 16 hours at 37 C, 5% CO2. 75 nL of a compound at 30 μM were dosed into the plate using an Echo® 650 liquid handler (Labcyte). Cells were incubated at 37° C., 5% CO2 for 24 hours and then signal was read on a Pherastar FSX using “LUM plus” optic module.
# Analysis was performed in Scinamic (Scinamic, Cambridge, MA). Luminescence response (R) was calculated by the formula: response=100*(S−N)/(P−N) where S is the signal of the well, N and P the mean negative and positive control values respectively of the same plate. The luminescence response was then fitted in Scinamic using a 3-parameter agonist logistic fit (hillslope=1, EC50>0, top/bottom unconstrained).
# CRBN-DDB1 = CRBN-DDB1 (Homo sapiens, UniProt Q96SW2); assay: Compound binding to CRBN by HTRF assay; details: CRBN-DDB1 2.5 nM, Cy5-Thalidomide 100 nM, 30 min; Ki from geometric mean IC50 by Cheng-Prustoff transformation
# CRBN-DDB1, sequence (Q96SW2 whole entry): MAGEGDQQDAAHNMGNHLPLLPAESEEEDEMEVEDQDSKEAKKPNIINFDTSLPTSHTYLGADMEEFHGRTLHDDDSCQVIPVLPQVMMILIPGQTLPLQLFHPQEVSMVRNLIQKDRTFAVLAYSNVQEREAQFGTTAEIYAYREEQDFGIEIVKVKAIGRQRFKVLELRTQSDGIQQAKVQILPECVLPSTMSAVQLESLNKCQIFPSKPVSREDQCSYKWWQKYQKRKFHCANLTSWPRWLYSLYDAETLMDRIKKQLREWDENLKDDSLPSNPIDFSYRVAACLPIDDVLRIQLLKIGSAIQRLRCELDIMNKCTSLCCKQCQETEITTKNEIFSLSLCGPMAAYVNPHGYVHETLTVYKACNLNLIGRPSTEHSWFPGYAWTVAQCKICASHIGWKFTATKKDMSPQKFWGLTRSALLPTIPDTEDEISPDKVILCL
# CRBN-DDB1, sequence (Q16531 whole entry partner): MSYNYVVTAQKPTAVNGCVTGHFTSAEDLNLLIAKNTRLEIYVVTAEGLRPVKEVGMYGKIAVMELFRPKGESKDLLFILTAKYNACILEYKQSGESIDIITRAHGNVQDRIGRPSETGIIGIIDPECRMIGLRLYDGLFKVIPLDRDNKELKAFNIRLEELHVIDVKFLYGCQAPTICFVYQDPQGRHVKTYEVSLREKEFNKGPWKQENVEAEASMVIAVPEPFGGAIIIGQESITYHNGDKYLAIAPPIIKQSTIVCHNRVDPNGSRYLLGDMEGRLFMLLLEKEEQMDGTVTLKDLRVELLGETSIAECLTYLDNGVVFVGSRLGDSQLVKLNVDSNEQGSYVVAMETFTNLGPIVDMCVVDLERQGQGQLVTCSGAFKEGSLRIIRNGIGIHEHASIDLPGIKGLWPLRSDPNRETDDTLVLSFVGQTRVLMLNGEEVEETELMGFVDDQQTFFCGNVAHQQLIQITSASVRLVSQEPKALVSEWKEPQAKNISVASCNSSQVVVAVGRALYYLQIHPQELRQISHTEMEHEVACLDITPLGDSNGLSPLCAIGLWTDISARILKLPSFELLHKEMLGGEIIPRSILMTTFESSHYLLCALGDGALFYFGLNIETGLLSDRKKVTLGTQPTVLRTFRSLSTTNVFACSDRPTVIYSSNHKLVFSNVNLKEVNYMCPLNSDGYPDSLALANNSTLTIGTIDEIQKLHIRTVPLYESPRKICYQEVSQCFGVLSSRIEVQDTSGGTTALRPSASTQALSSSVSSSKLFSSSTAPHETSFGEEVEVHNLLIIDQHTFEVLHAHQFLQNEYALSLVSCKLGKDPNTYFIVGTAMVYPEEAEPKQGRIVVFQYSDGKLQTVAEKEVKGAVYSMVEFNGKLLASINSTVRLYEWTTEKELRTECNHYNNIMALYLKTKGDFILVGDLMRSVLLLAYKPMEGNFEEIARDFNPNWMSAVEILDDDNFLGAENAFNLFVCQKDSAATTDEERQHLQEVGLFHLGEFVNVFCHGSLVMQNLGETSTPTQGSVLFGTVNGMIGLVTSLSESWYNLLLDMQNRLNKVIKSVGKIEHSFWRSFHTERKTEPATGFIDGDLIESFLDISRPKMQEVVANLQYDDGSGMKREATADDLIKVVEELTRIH
# Protocol: Compound activity was monitored in a Homogenous Time-Resolved Fluorescence (HTRF) assay using 1-[5-({2-[2-(2-{[2-(2,6-dioxopiperidin-3-yl)-1,3-dioxo-2,3-dihydro-1H-isoindol-4-yl]oxy}acetamido)ethoxy]ethyl}carbamoyl)pentyl]-3,3-dimethyl-2-[(1E,3E)-5-[(2E)-1,3,3-trimethyl-5-sulfo-2,3-dihydro-1H-indol-2-ylidene]penta-1,3-dien-1-yl]-3H-indol-1-ium-5-sulfonate as a fluorescent probe. Biochemical assays were conducted in Greiner white 384 well HiBase plates (Cat. No 784075-25) in 10 μL total volume. A one pot detection solution of CRBN-DDB1 (2.5 nM), Anti-His Terbium Cryptate Gold (1×, PerkinElmer Cat. #: 61HI2TLB), and Cy5-Thalidomide (100 nM, Tenova Cat.: T52461) was prepared in 20 mM HEPES, 20 mM NaCl, 0.2 mM TCEP, 0.2 mM EDTA, and 0.005% Tween20 was dispensed to each assay plate. Compounds were stored in dry, ambient temperatures at 10 mM. A 10-point, 1:3 dilution series was prepared from 10 mM stock concentrations in Echo-compatible LDV plates. 10 nL of each compound dilution series was dispensed into assays wells using an Echo 650 (Labcyte inc. USA). 10 nL of 10 mM Lenalidomide was transferred into the active-control wells for the assay and 10 nL of DMSO was transferred into the neutral-control wells. The assay was then allowed to incubate for 30 min at ambient temperature after transferring compound. Plate measurements were taken on a Pherastar FSX (BMG Labtech, Germany) using the HTRF Red filter (Ex. 337 nm, em1: 620 nm, em2: 665 nm) (Flashes: 50, Integration time: 60-400 us, Z-height: 10 mm, Ratio-multiplier: 10,000). The HTRF signal was then subsequently normalized to the neutral and active controls. Analysis and IC50 values were derived using KNIME analytics (KNIME Zurich) transformation and fitting within Collaborative Drug Discovery (Collaborative Drug Discovery USA). Ki was derived from the geometric mean of the IC50 values using the Cheng-Prustoff transformation.
compound,measurement,setting,value
"C[C@@H]1CC[C@H](COC(=O)NCc2ccc3c(c2)C(=O)N(C2CCC(=O)NC2=O)C3)O1 (mixture of isomers) [Compound 68, rac-[(2R,5R)-5-methyloxolan-2-yl]methyl N-{[2-(2,6-dioxopiperidin-3-yl)-3-oxo-2,3-dihydro-1H-isoindol-5-yl]methyl}carbamate]",Dmax,CDK2,10 to 50%
"O=C1CCC(N2Cc3ccc(CNC(=O)OCC4CCC[C@H]4C(F)(F)F)cc3C2=O)C(=O)N1 (mixture of isomers) [Compound 73, rac-[(1R,2R)-2-(trifluoromethyl)cyclopentyl]methyl N-{[2-(2,6-dioxopiperidin-3-yl)-3-oxo-2,3-dihydro-1H-isoindol-5-yl]methyl}carbamate]",Dmax,CDK2,≤ 10%
same,Ki,CRBN-DDB1,0.1 to 1 µM
"O=C1CCC(N2Cc3ccc(CNC(=O)OC[C@@H]4C[C@H]4F)cc3C2=O)C(=O)N1 (mixture of isomers) [Compound 75, rac-[(1R,2S)-2-fluorocyclopropyl]methyl N-{[2-(2,6-dioxopiperidin-3-yl)-3-oxo-2,3-dihydro-1H-isoindol-5-yl]methyl}carbamate]",Dmax,CDK2,≤ 10%
"C[C@@H]1CCOC1COC(=O)NCc1ccc2c(c1)C(=O)N(C1CCC(=O)NC1=O)C2 (mixture of isomers) [Compound 76, rac-[(2R,3S)-3-methyloxolan-2-yl]methyl N-{[2-(2,6-dioxopiperidin-3-yl)-3-oxo-2,3-dihydro-1H-isoindol-5-yl]methyl}carbamate]",Dmax,CDK2,≤ 10%
"O=C1CCC(N2Cc3ccc(CNC(=O)O[C@H]4C[C@@H]5C[C@H]4CC5(F)F)cc3C2=O)C(=O)N1 (mixture of isomers) [Compound 92, rac-(1R,2R,4R)-5,5-difluorobicyclo[2.2.1]heptan-2-yl N-{[2-(2,6-dioxopiperidin-3-yl)-3-oxo-2,3-dihydro-1H-isoindol-5-yl]methyl}carbamate]",Dmax,CDK2,≤ 10%
"CCC1(COC(=O)NCc2ccc3c(c2)C(=O)N(C2CCC(=O)NC2=O)C3)COC1 (stereo not drawn) [Compound 42, (3-ethyloxetan-3-yl)methyl N-{[2-(2,6-dioxopiperidin-3-yl)-3-oxo-2,3-dihydro-1H-isoindol-5-yl]methyl}carbamate]",Dmax,CDK2,10 to 50%
"O=C1CCC(N2Cc3ccc(CNC(=O)OCC#CC4CC4)cc3C2=O)C(=O)N1 (stereo not drawn) [Compound 44, 3-cyclopropylprop-2-yn-1-yl N-{[2-(2,6-dioxopiperidin-3-yl)-3-oxo-2,3-dihydro-1H-isoindol-5-yl]methyl}carbamate]",Dmax,CDK2,10 to 50%
"CC(=O)N1CCC(COC(=O)NCc2ccc3c(c2)C(=O)N(C2CCC(=O)NC2=O)C3)C1 (stereo not drawn) [Compound 50, (1-acetylpyrrolidin-3-yl)methyl N-{[2-(2,6-dioxopiperidin-3-yl)-3-oxo-2,3-dihydro-1H-isoindol-5-yl]methyl}carbamate]",Dmax,CDK2,≤ 10%
"O=C1CCC(N2Cc3ccc(CNC(=O)OCC4CCCCS4)cc3C2=O)C(=O)N1 (stereo not drawn) [Compound 53, (thian-2-yl)methyl N-{[2-(2,6-dioxopiperidin-3-yl)-3-oxo-2,3-dihydro-1H-isoindol-5-yl]methyl}carbamate]",Dmax,CDK2,10 to 50%
"CC(C)O[C@H]1C[C@@H](OC(=O)NCc2ccc3c(c2)C(=O)N(C2CCC(=O)NC2=O)C3)C1 (stereo partly drawn) [Compound 55, (1s,3s)-3-(propan-2-yloxy)cyclobutyl N-{[2-(2,6-dioxopiperidin-3-yl)-3-oxo-2,3-dihydro-1H-isoindol-5-yl]methyl}carbamate]",Dmax,CDK2,10 to 50%
"COCC1(COC(=O)NCc2ccc3c(c2)C(=O)N(C2CCC(=O)NC2=O)C3)CCCC1 (stereo not drawn) [Compound 57, [1-(methoxymethyl)cyclopentyl]methyl N-{[2-(2,6-dioxopiperidin-3-yl)-3-oxo-2,3-dihydro-1H-isoindol-5-yl]methyl}carbamate]",Dmax,CDK2,≤ 10%
"O=C1CCC(N2Cc3ccc(CNC(=O)OCC4CSC4)cc3C2=O)C(=O)N1 (stereo not drawn) [Compound 60, (thietan-3-yl)methyl N-{[2-(2,6-dioxopiperidin-3-yl)-3-oxo-2,3-dihydro-1H-isoindol-5-yl]methyl}carbamate]",Dmax,CDK2,10 to 50%
"O=C1CCC(N2Cc3ccc(CNC(=O)OC[C@H]4[C@@H]5COC[C@@H]54)cc3C2=O)C(=O)N1 (stereo partly drawn) [Compound 61, [(1R,5S,6R)-3-oxabicyclo[3.1.0]hexan-6-yl]methyl N-{[2-(2,6-dioxopiperidin-3-yl)-3-oxo-2,3-dihydro-1H-isoindol-5-yl]methyl}carbamate]",Dmax,CDK2,≤ 10%
"CC1(C)[C@@H]2C[C@@H](OC(=O)NCc3ccc4c(c3)C(=O)N(C3CCC(=O)NC3=O)C4)C[C@@H]21 (stereo partly drawn) [Compound 62, (1R,3s,5S)-6,6-dimethylbicyclo[3.1.0]hexan-3-yl N-{[2-(2,6-dioxopiperidin-3-yl)-3-oxo-2,3-dihydro-1H-isoindol-5-yl]methyl}carbamate]",Dmax,CDK2,50 to 80%
"CC1(C)C2CCC1(COC(=O)NCc1ccc3c(c1)C(=O)N(C1CCC(=O)NC1=O)C3)CC2 (stereo not drawn) [Compound 63, {7,7-dimethylbicyclo[2.2.1]heptan-1-yl}methyl N-{[2-(2,6-dioxopiperidin-3-yl)-3-oxo-2,3-dihydro-1H-isoindol-5-yl]methyl}carbamate]",Dmax,CDK2,10 to 50%
"C[C@@H](OC(=O)NCc1ccc2c(c1)C(=O)N(C1CCC(=O)NC1=O)C2)C1CC12CC2 (stereo partly drawn) [Compound 71, (1R)-1-{spiro[2.2]pentan-1-yl}ethyl N-{[2-(2,6-dioxopiperidin-3-yl)-3-oxo-2,3-dihydro-1H-isoindol-5-yl]methyl}carbamate]",Dmax,CDK2,≤ 10%
"O=C1CCC(N2Cc3ccc(CNC(=O)OCCC4CC4(F)F)cc3C2=O)C(=O)N1 (stereo not drawn) [Compound 78, 2-(2,2-difluorocyclopropyl)ethyl N-{[2-(2,6-dioxopiperidin-3-yl)-3-oxo-2,3-dihydro-1H-isoindol-5-yl]methyl}carbamate]",Dmax,CDK2,≤ 10%
"O=C1CCC(N2Cc3ccc(CNC(=O)OCC4CCCS4(=O)=O)cc3C2=O)C(=O)N1 (stereo not drawn) [Compound 82, (1,1-dioxo-1lambda6-thiolan-2-yl)methyl N-{[2-(2,6-dioxopiperidin-3-yl)-3-oxo-2,3-dihydro-1H-isoindol-5-yl]methyl}carbamate]",Dmax,CDK2,≤ 10%
"CC1(COC(=O)NCc2ccc3c(c2)C(=O)N(C2CCC(=O)NC2=O)C3)CCCCC1 (stereo not drawn) [Compound 85, (1-methylcyclohexyl)methyl N-{[2-(2,6-dioxopiperidin-3-yl)-3-oxo-2,3-dihydro-1H-isoindol-5-yl]methyl}carbamate]",Dmax,CDK2,10 to 50%
"CC1(C)OC[C@@H](COC(=O)NCc2ccc3c(c2)C(=O)N(C2CCC(=O)NC2=O)C3)O1 (stereo partly drawn) [Compound 87, [(4S)-2,2-dimethyl-1,3-dioxolan-4-yl]methyl N-{[2-(2,6-dioxopiperidin-3-yl)-3-oxo-2,3-dihydro-1H-isoindol-5-yl]methyl}carbamate]",Dmax,CDK2,≤ 10%
"CN(C(=O)OC(C)(C)C)C1CC(COC(=O)NCc2ccc3c(c2)C(=O)N(C2CCC(=O)NC2=O)C3)C1 (stereo not drawn) [Compound 96, (3-{[(tert-butoxy)carbonyl](methyl)amino}cyclobutyl)methyl N-{[2-(2,6-dioxopiperidin-3-yl)-3-oxo-2,3-dihydro-1H-isoindol-5-yl]methyl}carbamate]",Dmax,CDK2,10 to 50%
"CC1(COC(=O)NCc2ccc3c(c2)C(=O)N(C2CCC(=O)NC2=O)C3)CN(C2CC2)C1 (stereo not drawn) [Compound 97, (1-cyclopropyl-3-methylazetidin-3-yl)methyl N-{[2-(2,6-dioxopiperidin-3-yl)-3-oxo-2,3-dihydro-1H-isoindol-5-yl]methyl}carbamate]",Dmax,CDK2,≤ 10%
"CC1CN(CCOC(=O)NCc2ccc3c(c2)C(=O)N(C2CCC(=O)NC2=O)C3)C1 (stereo not drawn) [Compound 98, 2-(3-methylazetidin-1-yl)ethyl N-{[2-(2,6-dioxopiperidin-3-yl)-3-oxo-2,3-dihydro-1H-isoindol-5-yl]methyl}carbamate]",Dmax,CDK2,10 to 50%

# Reference: US20240317706A1, “COMPOUNDS THAT MEDIATE PROTEIN DEGRADATION AND METHODS OF USE THEREOF” (Monte Rosa Therapeutics, Inc., priority 2021, published 2024)
